According to the supplement of paper PMC10307832:

Experiments:
Assay in all cases: relative viability (nuclei count vs DMSO), 5 days (fraction); higher = more cells survive
[1] = compound: C1CSC2=C(C(=O)N1)SC3=C2C=C(C=C3)O [kb NB 142-70] + C[C@@H](Oc1cc(-c2cnn(C3CCNCC3)c2)cnc1N)c1c(Cl)ccc(F)c1Cl [Crizotinib] (partner 1 µM)
Summary of the method: (§1)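 For relative viability, nuclei counts in treated wells were divided by those in vehicle wells. Lung cancer cell lines had been pin-tool dosed in 1536-well plates the day after seeding and cultured for 5 days, then fixed and stained in one step (final 0.05% Triton X-100, 1% formaldehyde, 1 ug/ml Hoechst) and imaged at 4×. Doses were one drug alone or a fixed anchor-drug dose plus five library-drug doses (not always all listed) in √10 steps, and values are duplicate-plate medians.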

[2] = compound: NCC(=O)Nc1ccc(-n2nc(C(F)(F)F)cc2-c2ccc3c(ccc4ccccc43)c2)cc1 + O=C(CCCCCCC(=O)Nc1ccccc1)NO [Vorinostat] (partner 1 µM)
Summary of the method: as §1

[3] = compound: C1CSC2=C(C(=O)N1)SC3=C2C=C(C=C3)O [kb NB 142-70] + Nc1ncn([C@H]2C[C@H](O)[C@@H](CO)O2)c(=O)n1 [Decitabine] (partner 2 µM)
Summary of the method: as §1

[4] = compound: NCC(=O)Nc1ccc(-n2nc(C(F)(F)F)cc2-c2ccc3c(ccc4ccccc43)c2)cc1 + Cc1cc(Nc2cc(N3CCN(C)CC3)nc(Sc3ccc(NC(=O)C4CC4)cc3)n2)n[nH]1 [Tozasertib] (partner 0.1 µM)
Summary of the method: as §1

[5] = compound: C1CSC2=C(C(=O)N1)SC3=C2C=C(C=C3)O [kb NB 142-70] + CC(=O)Nc1cccc(-n2c(=O)n(C3CC3)c(=O)c3c(Nc4ccc(I)cc4F)n(C)c(=O)c(C)c32)c1 [Trametinib] (partner 0.02 µM)
Summary of the method: as §1

Cell Line | relative viability ([1]; first compound 0.1 µM) | relative viability ([1]; first compound 1 µM) | relative viability ([1]; first compound 3.162 µM) | relative viability ([2]; first compound 0.02 µM) | relative viability ([2]; first compound 0.06325 µM) | relative viability ([2]; first compound 0.2 µM) | relative viability ([2]; first compound 0.6325 µM) | relative viability ([2]; first compound 2 µM) | relative viability ([3]; first compound 0.1 µM) | relative viability ([3]; first compound 1 µM) | relative viability ([3]; first compound 3.162 µM) | relative viability ([4]; first compound 0.02 µM) | relative viability ([4]; first compound 0.06325 µM) | relative viability ([4]; first compound 0.2 µM) | relative viability ([4]; first compound 0.6325 µM) | relative viability ([4]; first compound 2 µM) | relative viability ([5]; first compound 0.1 µM) | relative viability ([5]; first compound 1 µM) | relative viability ([5]; first compound 3.162 µM)
LC-2-ad | 0.446 | 0.429 | 0.421 | 0.68 | 0.757 | 0.769 | 0.673 | 0.76 | 0.798 | 0.769 | 0.772 | 0.399 | 0.546 | 0.486 | 0.469 | 0.42 | 0.898 | 0.937 | 0.875
SK-LU-1 | 0.861 | 0.691 | 0.45 | 0.804 | 0.798 | 0.91 | 0.71 | 0.821 | 0.589 | 0.505 | 0.417 | 0.324 | 0.335 | 0.386 | 0.346 | 0.339 | 0.486 | 0.548 | 0.27
ChaGo-K-1 | 1.1 | 1.16 | 1.13 | 0.667 | 0.794 | 0.725 | 0.725 | 0.76 | 0.509 | 0.515 | 0.461 | 0.21 | 0.223 | 0.241 | 0.251 | 0.231 | 0.883 | 0.875 | 0.876
COR-L 105 | 0.564 | 0.816 | 0.925 | 0.873 | 0.861 | 0.724 | 0.781 | 1.04 | 0.68 | 0.576 | 0.589 | 0.361 | 0.313 | 0.303 | 0.295 | 0.336 | 0.452 | 0.426 | 0.448
NCI-H1975 | 0.899 | 0.959 | 0.842 | 0.728 | 0.729 | 0.804 | 0.704 | 0.747 | 0.431 | 0.388 | 0.295 | 0.7 | 0.841 | 0.839 | 0.726 | 0.747 | 0.407 | 0.339 | 0.248
NCI-H1993 | 0.842 | 0.892 | 0.854 | 0.798 | 0.952 | 0.656 | 0.969 | 0.862 | 0.63 | 0.589 | 0.514 | 0.54 | 0.582 | 0.572 | 0.529 | 0.561 | 0.479 | 0.741 | 0.485
RERF-LC-KJ | 0.819 | 0.93 | 0.924 | 0.59 | 0.652 | 0.609 | 0.758 | 0.772 | 0.681 | 0.664 | 0.482 | 0.449 | 0.548 | 0.555 | 0.552 | 0.403 | 0.914 | 0.928 | 0.805
NCI-H23 | 0.502 | 0.522 | 0.253 | 0.583 | 0.626 | 0.644 | 0.573 | 0.555 | 0.34 | 0.266 | 0.251 | 0.332 | 0.453 | 0.314 | 0.358 | 0.369 | 0.37 | 0.29 | 0.278
HCC-366 | 0.533 | 0.633 | 0.463 | 0.254 | 0.423 | 0.419 | 0.357 | 0.435 | 0.366 | 0.407 | 0.415 | 0.42 | 0.18 | 0.118 | 0.15 | 0.0801 | 0.321 | 0.274 | 0.232
EMC-BAC-2 | 0.782 | 0.893 | 0.625 | 0.454 | 0.511 | 0.569 | 0.514 | 0.488 | 1.06 | 0.994 | 1.1 | 0.29 | 0.314 | 0.325 | 0.308 | 0.302 | 0.876 | 0.917 | 0.941
NCI-H2405 | 0.796 | 0.885 | 0.717 | 1.08 | 1.11 | 1.1 | 1.01 | 1.16 | 0.727 | 0.783 | 0.648 | 0.745 | 0.853 | 0.779 | 0.733 | 0.868 | 0.604 | 0.596 | 0.643
NCI-H358 | 0.481 | 0.493 | 0.136 | 0.735 | 0.728 | 0.694 | 0.768 | 0.653 | 0.226 | 0.148 | 0.0899 | 0.0971 | 0.102 | 0.12 | 0.0969 | 0.0967 | 0.117 | 0.103 | 0.105
NCI-H1944 | 1.02 | 1.31 | 1.23 | 0.546 | 0.695 | 0.554 | 0.558 | 0.526 | 0.451 | 0.458 | 0.473 | 0.239 | 0.264 | 0.264 | 0.26 | 0.27 | 0.417 | 0.444 | 0.442
EPLC-272H | 0.851 | 1.03 | 0.428 | 0.354 | 0.538 | 0.491 | 0.573 | 0.501 | 0.404 | 0.303 | 0.303 | 0.299 | 0.225 | 0.365 | 0.313 | 0.234 | 0.275 | 0.274 | 0.295
NCI-H1915 | 0.887 | 0.915 | 0.481 | 0.525 | 0.555 | 0.56 | 0.497 | 0.552 | 0.263 | 0.246 | 0.23 | 0.378 | 0.465 | 0.426 | 0.418 | 0.407 | 0.332 | 0.331 | 0.37
NCI-H596 | 1.03 | 1.03 | 0.933 | 0.636 | 0.705 | 0.706 | 0.731 | 0.526 | 0.909 | 1.09 | 0.766 | 1 | 0.911 | 1.02 | 0.925 | 0.903 | 0.792 | 0.854 | 0.65
